Target: T1, CaCDPK1 (Cicer arietinum, UniProt Q7XZK5)
T1 construct: gene CDPK1; full ORF in pRSET A (His-tag), expressed in Escherichia coli BL21, Ni-NTA purified under native conditions; tag removal not mentioned
Assay: intrinsic tryptophan fluorescence quenching at […] nm
Assay type: binding
Details: PA vesicles (sonicated), 1 mM CaCl2, pH 7.2, 25 °C, 1 µM protein; half-maximal fluorescence change; activator

T1 sequence (Q7XZK5 1-556): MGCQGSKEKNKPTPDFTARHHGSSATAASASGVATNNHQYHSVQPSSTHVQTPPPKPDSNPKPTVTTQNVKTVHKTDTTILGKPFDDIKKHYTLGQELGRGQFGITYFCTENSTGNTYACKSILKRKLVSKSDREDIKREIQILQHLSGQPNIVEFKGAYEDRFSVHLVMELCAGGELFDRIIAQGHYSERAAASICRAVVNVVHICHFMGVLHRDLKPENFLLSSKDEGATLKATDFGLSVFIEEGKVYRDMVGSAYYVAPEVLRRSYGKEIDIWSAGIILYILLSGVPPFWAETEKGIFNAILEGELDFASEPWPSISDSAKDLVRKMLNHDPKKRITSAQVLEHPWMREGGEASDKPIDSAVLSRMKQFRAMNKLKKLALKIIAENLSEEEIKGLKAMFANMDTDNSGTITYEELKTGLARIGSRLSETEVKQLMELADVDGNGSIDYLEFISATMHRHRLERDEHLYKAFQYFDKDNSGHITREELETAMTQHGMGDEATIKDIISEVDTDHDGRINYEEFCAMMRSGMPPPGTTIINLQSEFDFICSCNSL

For “1,2-diacyl-sn-gylcero-3-P sodium salt [PA]”, the Kd was 335 nM.

From PMC3527483, “Phospholipid Mediated Activation of Calcium Dependent Protein Kinase 1 (CaCDPK1) from Chickpea: A New Paradigm of Regulation” (PLoS ONE, 2012)
